Here are results for 36 compounds from a melting point compilation (Tetko et al.; mined from patent text by program, amines drawn as free bases though some values may be those of a salt).

SMILES strings stand for the structures.

`O=S(=O)(Cc1n[nH]c(-c2ccccc2)n1)c1ccccc1`: the melting point – broadly, the temperature of the solid-liquid transition – was 141 to 144 °C. With `Cn1c(C(F)(F)F)ccc(-c2cc3[nH]c(=O)oc3cc2Cl)c1=O`, the melting point fell in the range of 263 to 265 °C. With `Cc1ncnc(-c2ccc(Oc3ccc([N+](=O)[O-])cc3)cc2)n1` the figure was 148 to 149 °C; with `N=C(NO)c1cccc(-c2ccc(O)c(-c3nc4cc(C(=N)NO)ccc4[nH]3)c2)c1`, 352 to 355 °C; with `CCCCn1cc(C(=O)O)c2ccc(Cl)cc21`, 149 to 151 °C.

In the case of `CC=CCn1c(C)c(C)c2cnnc(SCc3ccc(Cl)cc3Cl)c21`, the melting point fell in the range of 81 to 85 °C. To `CCCn1c(=O)c2[nH]c(/C=C/c3cc(OC)c(OC)cc3OC)nc2n(CCC)c1=O` belongs 254 to 256 °C; to `NS(=O)(=O)c1cc2ccncc2o1`, 199 to 201 °C; to `CN1CCN=C(c2ccccc2)c2cc([N+](=O)[O-])ccc21`, 186 to 187 °C. To `CC(C)C[C@H](NC(=O)OC1CCCCC1)C(=O)N[C@@H](Cc1ccccc1)C(=O)CSCc1ccco1` belongs 102 to 103 °C; to `Nc1ccc(C(=O)c2ccccc2)cc1COC1CCCCO1` (stereo unspecified), 164 °C.

Regarding `CN(Cc1cc(Cl)c(O)c(Br)c1)C1CCCCC1`, the melting point was in the range of 136 to 138 °C. With `CCCc1c([C@@H]2C[C@H]2c2ccccc2)oc2ccc(C(=O)O)cc2c1=O` (relative stereo), the melting point was in the range of 195 to 196 °C. With `CC(=O)N1CN(C(=O)c2c(F)cccc2F)C(=O)N(c2ccc(Cl)cc2)C1` the figure was 171 to 172 °C.

`CCCCCNS(=O)(=O)NC(=O)/C=C/c1c(C)nn(C)c1-n1ccc2cc(Cl)ccc21`: the melting point was 184 °C. To `Cc1nn(C)c(O)c1C(=O)c1c(Cl)cccc1Cl` belongs 250 °C; to `N#Cc1c(Cl)cccc1C(Br)Br`, 120 °C; to `CCCCn1c(=O)c2[nH]ncc2n(CCC(C)C)c1=O`, 77 to 79 °C. To `C#CCOC(=O)C1=C(N)NC(N)=C(C(=O)OCC#C)C1c1cccc([N+](=O)[O-])c1` belongs 170 °C. For the compound `Cc1cc(N)c2cc(NC(=O)C=Cc3ccccc3C(F)(F)F)ccc2n1`, the melting point lay in the range of 272 to 273 °C. Compound `CCc1cc(O)c(C(=O)CCc2ccc3occc3c2)c(OC2OC(CO)C(O)C(O)C2O)c1` (stereo unspecified) had a melting point of 146 to 148 °C. To `CC(CNC(=O)Cc1ccccc1)Oc1ccccc1` (stereo unspecified) belongs 94 to 96 °C.

As for `CCCCCCn1c(=O)[nH][nH]c1=O`, the melting point lay in the range of 144 to 145 °C. In the case of `CCC1c2cccn2-c2ccc(Br)cc2N1S(=O)(=O)c1ccc(O)cc1` (stereo unspecified), the melting point lay in the range of 206 to 208 °C. With `CC(=CCO)CS(=O)(=O)c1ccccc1` the figure was 55 to 56.5 °C; with `O=C(O)Cn1c(=O)n2n(c1=O)C(C(=O)O)CCC2` (stereo unspecified), 189 to 192 °C; with `CCCCCCC(C(=O)O)n1cc(CC)c2cc(-c3ccccc3-c3nn[nH]n3)ccc21` (stereo unspecified), 110 to 113 °C. With `Cn1ncc2[nH]c3ccc(NC(=O)c4ccccc4)cc3c(=O)c21` the figure was over 300 °C; with `N#CC(Cc1ccccn1)(c1ccccc1)c1ccccc1`, 116 to 117 °C. To `Nc1nc(N)nc(-c2ccc(S(=O)c3ccccc3)cc2)n1` (stereo unspecified) belongs 253 to 255 °C. Regarding `O=c1[nH]c2ccc(C#CCCN3CCC(Cc4ccccc4)CC3)cc2[nH]1`, the melting point lay within 221 to 223 °C. With `CCC(CC)Nc1cc(C)nc(Nc2c(C)cc(C)cc2C)c1[N+](=O)[O-]` the figure was 104 to 107 °C; with `Oc1ccc(-c2nc(-c3ccccc3)nc3ccccc23)c(O)c1`, 178 to 180 °C. To `CCN1c2ncccc2C(=O)N(C)c2ccc(-c3c[nH]c(C(=O)O)c3)nc21` belongs 256 to 257 °C; to `CC(C)(C)C(=O)N[C@@H](CS)C(=O)O`, 140 °C. As to `Cn1ncnc1COc1nn2c(-c3cc(F)ccc3F)nncc2c1-c1ccccc1`, the melting point was 199 °C.
